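Grown in 96-well plates, cells were treated for 48 hours with each compound at five concentrations. Insufficient inhibition: endpoint recorded as highest concentration tested. TGI denotes the concentration required for complete inhibition of growth.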 Peptide text beside a SMILES is read from it. * marks the point of attachment. Boc = CC(C)(C)OC(=O)*; OBn = c1ccc(CO*)cc1
Assays:
Experiment in all cases: NCI-60 cell line screen, 48 h
MALME-3M melanoma = tested on: MALME-3M melanoma
OVCAR-5 ovarian = tested on: OVCAR-5 ovarian
OVCAR-4 ovarian = tested on: OVCAR-4 ovarian
SNB-19 CNS = tested on: SNB-19 CNS
COLO 205 colon = tested on: COLO 205 colon
UACC-62 melanoma = tested on: UACC-62 melanoma
NCI-H522 lung = tested on: NCI-H522 lung
RPMI-8226 leukemia = tested on: RPMI-8226 leukemia
IGROV1 ovarian = tested on: IGROV1 ovarian
M14 melanoma = tested on: M14 melanoma
SF-539 CNS = tested on: SF-539 CNS
HS 578T breast = tested on: HS 578T breast
SN12C renal = tested on: SN12C renal
CAKI-1 renal = tested on: CAKI-1 renal
NCI/ADR-RES ovarian = tested on: NCI/ADR-RES ovarian
MOLT-4 leukemia = tested on: MOLT-4 leukemia
OVCAR-3 ovarian = tested on: OVCAR-3 ovarian
SW-620 colon = tested on: SW-620 colon
SF-268 CNS = tested on: SF-268 CNS
SK-MEL-5 melanoma = tested on: SK-MEL-5 melanoma
A549 NSCLC = tested on: A549 NSCLC
HCT-15 colon = tested on: HCT-15 colon
TK-10 renal = tested on: TK-10 renal
MDA-MB-231 breast = tested on: MDA-MB-231 breast
NCI-H226 lung = tested on: NCI-H226 lung
LOX IMVI melanoma = tested on: LOX IMVI melanoma
PC-3 prostate = tested on: PC-3 prostate
KM12 colon = tested on: KM12 colon
K-562 leukemia = tested on: K-562 leukemia
NCI-H23 lung = tested on: NCI-H23 lung
HL-60(TB) leukemia = tested on: HL-60(TB) leukemia
HCC-2998 colon = tested on: HCC-2998 colon
SK-MEL-28 melanoma = tested on: SK-MEL-28 melanoma
MDA-N = tested on: MDA-N
NCI-H460 lung = tested on: NCI-H460 lung
UO-31 renal = tested on: UO-31 renal
A498 renal = tested on: A498 renal
786-0 renal = tested on: 786-0 renal
SK-OV-3 ovarian = tested on: SK-OV-3 ovarian
UACC-257 melanoma = tested on: UACC-257 melanoma
T-47D breast = tested on: T-47D breast
SNB-75 CNS = tested on: SNB-75 CNS
U251 CNS = tested on: U251 CNS
ACHN renal = tested on: ACHN renal
MDA-MB-435 = tested on: MDA-MB-435
SR leukemia = tested on: SR leukemia
HCT-116 colon = tested on: HCT-116 colon
DU-145 prostate = tested on: DU-145 prostate
SK-MEL-2 melanoma = tested on: SK-MEL-2 melanoma
HT29 colon = tested on: HT29 colon
BT-549 breast = tested on: BT-549 breast
RXF 393 renal = tested on: RXF 393 renal
HOP-92 NSCLC = tested on: HOP-92 NSCLC
SF-295 CNS = tested on: SF-295 CNS
OVCAR-8 ovarian = tested on: OVCAR-8 ovarian
EKVX NSCLC = tested on: EKVX NSCLC
HOP-62 NSCLC = tested on: HOP-62 NSCLC
CCRF-CEM leukemia = tested on: CCRF-CEM leukemia
MCF7 breast = tested on: MCF7 breast

Measured: TGI

CCN(CC)C(=S)SNCc1ccc(S(N)(=O)=O)cc1
34.1 µM: SNB-19 CNS
29.9 µM: OVCAR-5 ovarian
> 86 µM: SK-OV-3 ovarian
22.8 µM: RPMI-8226 leukemia | HL-60(TB) leukemia
48.1 µM: OVCAR-4 ovarian
22.2 µM: NCI-H522 lung
26.7 µM: SF-268 CNS
> 62.2 µM: MOLT-4 leukemia
28.9 µM: SN12C renal
33.5 µM: UACC-257 melanoma
34.4 µM: NCI-H460 lung
27.7 µM: COLO 205 colon
83.1 µM: UACC-62 melanoma
26.3 µM: A549 NSCLC
33 µM: BT-549 breast
34.9 µM: SF-295 CNS
50.4 µM: HS 578T breast
> 63.2 µM: NCI-H226 lung
25.1 µM: M14 melanoma
29.2 µM: KM12 colon
> 64.6 µM: SR leukemia
> 50.1 µM: SW-620 colon
28.8 µM: LOX IMVI melanoma | UO-31 renal
41.8 µM: NCI/ADR-RES ovarian
27.5 µM: OVCAR-3 ovarian
> 50.9 µM: MDA-MB-435
21 µM: HT29 colon
36.2 µM: SK-MEL-5 melanoma
43.5 µM: EKVX NSCLC
28 µM: 786-0 renal
26.6 µM: IGROV1 ovarian
39.5 µM: SNB-75 CNS | SK-MEL-2 melanoma
30.9 µM: MALME-3M melanoma
44.3 µM: NCI-H23 lung
47.7 µM: T-47D breast
28.4 µM: OVCAR-8 ovarian
15.8 µM: U251 CNS
29 µM: MDA-N
31.3 µM: CAKI-1 renal
29.6 µM: ACHN renal
> 48.9 µM: SK-MEL-28 melanoma
33.4 µM: DU-145 prostate
> 100 µM: K-562 leukemia | HCC-2998 colon | A498 renal
37.1 µM: MDA-MB-231 breast
32.1 µM: SF-539 CNS
45.7 µM: HOP-92 NSCLC
> 66 µM: TK-10 renal
30.5 µM: HOP-62 NSCLC
58 µM: HCT-15 colon
45.9 µM: RXF 393 renal
26.1 µM: PC-3 prostate
27.4 µM: HCT-116 colon

CC(NC(=O)CNC(=O)OC(C)(C)C)C(=O)NC(Cc1ccccc1)C(=O)OCc1ccccc1 (stereo not drawn) (Boc-Gly-Ala-Phe-OBn; configuration not given here)
> 100 µM: MALME-3M melanoma | OVCAR-5 ovarian | OVCAR-4 ovarian | SNB-19 CNS | COLO 205 colon | UACC-62 melanoma | NCI-H522 lung | IGROV1 ovarian | M14 melanoma | SF-539 CNS | HS 578T breast | SN12C renal | CAKI-1 renal | NCI/ADR-RES ovarian | MOLT-4 leukemia | SW-620 colon | SF-268 CNS | SK-MEL-5 melanoma | A549 NSCLC | HCT-15 colon | TK-10 renal | MDA-MB-231 breast | NCI-H226 lung | LOX IMVI melanoma | PC-3 prostate | KM12 colon | CCRF-CEM leukemia | K-562 leukemia | NCI-H23 lung | HL-60(TB) leukemia | SK-MEL-28 melanoma | MDA-N | UO-31 renal | MCF7 breast | A498 renal | 786-0 renal | SK-OV-3 ovarian | UACC-257 melanoma | T-47D breast | SNB-75 CNS | U251 CNS | ACHN renal | MDA-MB-435 | SR leukemia | HCT-116 colon | DU-145 prostate | SK-MEL-2 melanoma | HT29 colon | BT-549 breast | RXF 393 renal | HOP-92 NSCLC | SF-295 CNS | OVCAR-8 ovarian | EKVX NSCLC

O=C(O)c1ccccc1C(=O)Nn1cnnc1
> 100 µM: OVCAR-5 ovarian | OVCAR-4 ovarian | SNB-19 CNS | COLO 205 colon | UACC-62 melanoma | NCI-H522 lung | RPMI-8226 leukemia | IGROV1 ovarian | M14 melanoma | SF-539 CNS | SN12C renal | NCI/ADR-RES ovarian | MOLT-4 leukemia | OVCAR-3 ovarian | SW-620 colon | SF-268 CNS | SK-MEL-5 melanoma | A549 NSCLC | HCT-15 colon | TK-10 renal | MDA-MB-231 breast | LOX IMVI melanoma | PC-3 prostate | KM12 colon | CCRF-CEM leukemia | K-562 leukemia | NCI-H23 lung | HCC-2998 colon | SK-MEL-28 melanoma | MDA-N | UO-31 renal | MCF7 breast | 786-0 renal | SK-OV-3 ovarian | UACC-257 melanoma | SNB-75 CNS | U251 CNS | ACHN renal | MDA-MB-435 | HCT-116 colon | DU-145 prostate | SK-MEL-2 melanoma | HT29 colon | BT-549 breast | RXF 393 renal | HOP-92 NSCLC | SF-295 CNS | OVCAR-8 ovarian | EKVX NSCLC | HOP-62 NSCLC

NC(CCP(=O)(O)CCC1C=CC=CC1)C(=O)O (centres undefined)
55.4 µM: NCI-H522 lung
> 100 µM: OVCAR-5 ovarian | OVCAR-4 ovarian | SNB-19 CNS | COLO 205 colon | UACC-62 melanoma | RPMI-8226 leukemia | IGROV1 ovarian | M14 melanoma | SF-539 CNS | HS 578T breast | SN12C renal | CAKI-1 renal | NCI/ADR-RES ovarian | MOLT-4 leukemia | OVCAR-3 ovarian | SW-620 colon | SF-268 CNS | SK-MEL-5 melanoma | A549 NSCLC | HCT-15 colon | TK-10 renal | MDA-MB-231 breast | LOX IMVI melanoma | PC-3 prostate | KM12 colon | CCRF-CEM leukemia | K-562 leukemia | NCI-H23 lung | HL-60(TB) leukemia | HCC-2998 colon | SK-MEL-28 melanoma | MDA-N | NCI-H460 lung | UO-31 renal | SK-OV-3 ovarian | UACC-257 melanoma | T-47D breast | SNB-75 CNS | U251 CNS | ACHN renal | MDA-MB-435 | SR leukemia | HCT-116 colon | DU-145 prostate | SK-MEL-2 melanoma | HT29 colon | BT-549 breast | RXF 393 renal | HOP-92 NSCLC | SF-295 CNS | OVCAR-8 ovarian | EKVX NSCLC

Reference: PubChem BioAssay (NCI)
